Test: Human HepG2 cell viability assay in 384 well format
Type: toxicity, cell-based
Parameters: dose 125 nL, time 70.5 hour; concentration not given beside the values
Conditions: HepG2 cells, read-out: Inhibition

Compound	cytotoxicity at 70.5 h
CCC(=O)N1CCC2(CC1)CC(CC(=O)N(C)C)c1ccc(F)cc12 (stereo not given)	-1.89%
CN1CCC2(CC1)CN(C(=O)c1cccnc1)c1ccc(Cl)cc12	-10.6%
CS(=O)(=O)N1CCC2(CC1)CC(NCc1ccccn1)c1ccccc12 (stereo not given)	-9.6%
CCOCc1cnc2n1CCN(C(=O)c1cccc3c1OCCO3)C2C (stereo not given)	-5.93%
CC(C)N1Cc2c(C(=O)N3CCN(C)CC3)nn(C)c2C1	-0.433%
COCC(=O)NCc1cc(=O)n2c(n1)CN(Cc1cccs1)CCC2	-6.99%
O=C(COc1ccc(F)cc1)N1CCO[C@H]2[C@@H](OCC3CC3)CC[C@@H]21	-6.33%
CO[C@@H]1CC[C@H]2[C@H]1OCCN2C(=O)COc1ccc(C)cc1	-4.98%
CCC1=N[C@@]2(CC[C@@H]3CN(CC)C[C@@H]32)C(=O)N1C	7.11%
O=C(c1ncccn1)N1C[C@@H]2COC[C@]2(COc2cccnc2)C1	-4.57%
CO[C@H]1CC[C@H]2[C@H]1OCCN2C(=O)CCOc1ccccc1	-2.84%
CCN1CC[C@@H]2OC[C@H](C(=O)NCc3cccs3)C[C@@H]2C1	45.7%
CN(C)C(=O)CN1CCC2(COCc3cnc(-c4ccccc4)nc32)C1 (stereo not given)	-6.03%
Cn1ccc(-c2cc(C(=O)N3CCCCC3)c3ccccn23)n1	4.75%
O=C(N[C@@H]1CN(Cc2ccco2)[C@@H]2CCCO[C@@H]21)c1cscn1	-5.42%
O=C(C1CCC1)N1CC[C@@H]2CN(Cc3cccnc3)S(=O)(=O)[C@@H]2CC1	-4.67%
COCC(=O)N1CC[C@@H]2CN(Cc3cccnc3)S(=O)(=O)[C@@H]2CC1	-2.46%
c1ccc(COC[C@H]2CCC[C@@]23CNCCO3)nc1	15.4%
c1ccc(COC[C@@H]2CCC[C@@]23CNCCO3)nc1	14.4%
CC(=O)N1CCC2(CC1)CN(C(=O)c1cccnc1)c1ccc(F)cc12	-3.83%

Compound	cytotoxicity at 70.5 h
CCO[C@H]1CN(CC2CCOCC2)[C@@H]2CCCO[C@H]12	9.78%
O=C(N1CCCC1)N1C[C@H]2CCC[C@@]2(COCc2ccccn2)C1	-10.8%
Cc1cccc(CN2C[C@@H]3COC[C@]3(CNC(=O)C3CC3)C2)c1	-9.63%
NC(=O)N1CCC2(CCN(C(=O)c3cccnc3)CC2)C1	0.925%
Cc1ccc(CN2CCC3(CC2)CCN(C(=O)c2cccnc2)C3)o1	-5.87%
COCCN1CCCn2c(nc(CNC(=O)COC)cc2=O)C1	-2.45%
CCC(C)N1Cc2c(C(=O)N3CCOCC3)nn(C)c2C1 (stereo not given)	-6.15%
COCC(=O)NCc1cc(=O)n2c(n1)CN(Cc1ccccc1)CCC2	2.31%
O=C(C1CCC1)N1CC[C@H](O)[C@@H]1Cc1cccnc1	1.53%
O=C(C1=CCCC1)N1C[C@@H]2COC[C@]2(COc2ncccc2F)C1	6.81%
CCO[C@@H]1CC[C@H]2[C@H]1OCCN2Cc1ccoc1	-1.39%
CN1CCO[C@@H]2CN(C(=O)Cc3cccs3)CC[C@@H]2C1	-2.05%
CN(C)C1CCN(C(=O)c2cc(-c3ccn(C)n3)n3ccccc23)CC1	-6.13%
CC(C)CN1CCC2(COCc3cnc(-c4ccccc4)nc32)C1 (stereo not given)	-3.09%
c1ccc(CO[C@@H]2CN(Cc3nccs3)[C@@H]3COC[C@@H]32)nc1	-7.21%
c1cncc(CO[C@H]2CN(Cc3ccco3)[C@@H]3COC[C@H]23)c1	-3.78%
CN(Cc1cccnc1)[C@@H]1CN(C(=O)c2ccno2)[C@@H]2CCCO[C@H]12	-5.28%
COCCN1CCc2c(c(COc3cccnc3)nn2C)C1	-8.79%
CN1CCN(Cc2cn3c(n2)CN(Cc2cccc(F)c2)CC3)CC1	-11.9%
FC1(F)CCN(Cc2ccccn2)CC12CCN(c1cnccn1)C2 (stereo not given)	-5.08%

From ChEMBL document CHEMBL3507680, “University of Dundee, Gates Library screen for HepG2 cell viability”
